Source: the CheMixHub drug solubility set

Assay: xn = mol fraction of the nth substance listed, in the solute-free solvent

Nc1nc2ccc(OC(F)(F)F)cc2s1 + CCCO + O
solubility (g/100 g solution)
Conditions	278.15 K	283.15 K	288.15 K	293.15 K	298.15 K	303.15 K	308.15 K	313.15 K	318.15 K	323.15 K
x2 = 0.1138	11.3	12.7	13.8	14.7	15.4	16.1	16.7	17.1	17.7	18.2
x2 = 0.1666	19.6	21.1	22.3	23.1	24	24.9	25.7	26.4	27.5	28.6
x2 = 0.2306	33.4	34.7	35.8	37.2	38.1	39.2	40.1	40.9	41.9	42.8
x2 = 0.3103	39.9	40.9	42.4	43.4	45	46.2	47.9	49.2	50.6	52.4
x2 = 0.4116	53.3	56.1	58.5	60.7	63	64.6	66.3	67.6	68.7	69.7
x2 = 0.5454	54.6	56.3	57.9	59.9	61.7	63.6	65.3	66.6	67.9	68.7
x2 = 0.7292	48.8	50.6	52.6	54.6	56.6	58.2	60.2	61.6	63.1	64

c1ccc(-c2ccc(C(c3ccccc3)n3ccnc3)cc2)cc1 (stereo not given) + CCCO + O
solubility (g/100 g solution)
Conditions	278.15 K	283.15 K	288.15 K	293.15 K	298.15 K	303.15 K	308.15 K	313.15 K	318.15 K
x2 = 0.03225	0.0336	0.0464	0.0633	0.0834	0.101	0.139	0.185	0.229	0.288
x2 = 0.06974	0.0833	0.114	0.154	0.202	0.244	0.332	0.436	0.54	0.674
x2 = 0.1139	0.174	0.22	0.295	0.402	0.547	0.719	0.918	1.13	1.35
x2 = 0.1666	0.308	0.417	0.558	0.724	0.884	1.18	1.52	1.9	2.34
x2 = 0.2307	0.467	0.573	0.784	1.06	1.3	1.74	2.22	2.82	3.53
x2 = 0.3103	0.618	0.836	1.12	1.45	1.81	2.37	3.04	3.83	4.72
x2 = 0.4117	0.601	0.91	1.27	1.77	2.4	3.06	3.87	4.77	5.68
x2 = 0.5454	0.774	1.05	1.42	1.86	2.37	3.09	3.98	5.09	6.3
x2 = 0.7297	0.768	1.11	1.56	2.08	2.68	3.46	4.32	5.36	6.55

CCOc1ccccc1C(N)=O + CCO + CC#N
solubility (g/100 g solution)
Conditions	x2 = 0.1	x2 = 0.2	x2 = 0.3	x2 = 0.4	x2 = 0.5	x2 = 0.6	x2 = 0.7	x2 = 0.8	x2 = 0.9
293.15 K	3.67	4.64	5.5	6.13	6.78	6.6	6.09	5.58	4.95
298.15 K	4.87	5.98	7.15	7.99	8.56	8.45	7.95	7.21	6.29
303.15 K	6.28	7.75	8.84	9.86	10.4	10.1	9.58	8.65	7.54
308.15 K	8.19	9.9	11.3	12.4	13.1	13	12.2	11	9.7
313.15 K	10.5	12.4	14.4	15.7	16.2	16	15	13.7	11.8
318.15 K	13.3	15.6	17.7	19.2	19.9	19.5	18.3	16.5	14.7
